Results as given in patent US20030125388A1, “5-Aminolevulinic acid formulation dissolved/dispersed in non-aqueous solvents” (priority 2000, published 2003).

Key:
[1] = Decomposition check of non-aqueous 5-ALA solutions by capillary electrophoresis; type: physicochemical; settings: 10% solutions (weight/vol) in 1,2-propylene glycol and glycerol, after complete dissolution
Protocol: 10% solutions (weight/vol) of […] in 1,2-propylene glycol and glycerol were prepared.

[2] = UV-VIS measurement of 5-ALA solution after dilution with water; type: physicochemical; settings: 10% water-free solution, water added 1:1, subsequently diluted 1:100 with water
Source text: This was detected by measuring the decrease of absorbance at 447 nm (FIG. 2).

Question: For `NCC(=O)CCC(=O)O` [5-ALA, 5-aminolevulinic acid], which “degradation products (DHPY, PY, porphobilinogen) in capillary electrophoresis” value [1] is on record?
Answer: Its value is “neither DHPY, PY nor porphobilinogen were detected”.

Question: And the “by-products in UV spectrum” value [2]?
Answer: Its value is “without the presence of by-products”.
